Measurements taken from US8518677B2, “Microbial bioreaction process” (Evolva Sa, priority 2007, dated 2013).

Assays:
[1] = tested on: S. cerevisiae strain PALCPR; assay: Growth of evolved PALCPR strains in the presence of extraction solvent (CO2 production); assay type: cell-based; conditions: PALCPR-evolved-III from glycerol stock; 100 ml solvent from start, 800 rpm
Procedure: The cells of the PALCPR-solvent culture described in the previous example were taken as starting point because the presence of the solvent mixture would possibly have already evoked adaptation of cells to solvents. For that, cells of the culture described in the previous example were harvested during mid-exponential-phase and stored at −80° C. in 15% glycerol and subsequently a fermentor, containing the same medium as described in the previous example with 10 g/l glucose and 100 g/l galactose, was then inoculated with cells of said PALCPR-solvent culture. The cells were allowed to fully consume the glucose at a stirring speed of 1000 rpm with an average dissolved oxygen content of above 70% of saturated air. At the onset of galactose consumption, the stirring rate was turned down to 300 rpm, after which slowly 100 ml of octylacetate was added.
Galactose consumption indeed commenced again. A small arrest in CO2 production again occurred after 20 hours which, however, recovered after 5 hours, after which the cells grew exponentially with concomitant production of CO2, consumption of galactose within less than 40 hours. Based upon the CO2 production the specific growth rate was estimated to be 0.062 1/h (FIG. 2). The final biomass concentration was 21.6 g/l.
In order to further improve said strain in terms of length of lag-phase and growth rate, a 25 ml aliquot of the exponentional growing PALCPR-evolved-I strain was used to inoculate a fermentor, containing a similar medium as described in the previous example. However, the medium now only contained 100 g/l galactose and did contain 100 ml of octylacetate from the beginning of the fermentation. In addition, the stirrer speed was instantly set at 800 rpm. Upon inoculation of the fermentor, consumption of galactose only commenced after approximately 40 hours, indicated by a slow increase in CO2 signal, a decrease in dissolved oxygen and addition of base. Indeed the cells continued to grow exponentially with concomitant production of CO2, and consumed the galactose within less than 90 hours. Based upon the CO2 production the specific growth rate was estimated to be 0.041 1/h (FIG. 3). The final biomass concentration was 21.5 g/l. The strain is referred to as PALCPR-evolved-II.
Therefore, to further improve said strain in terms of both length of lag-phase and growth rate, a 50 ml aliquot of the exponentional growing PALCPR-evolved-II strain was used to inoculate a fermentor, containing a similar medium as described in the previous example (thus containing 100 g/l galactose 100 ml of octylacetate from the beginning of the fermentation). The stirrer speed was instantly set at 800 rpm. Upon inoculation of the fermentor, consumption of galactose already commenced after less then 20 hours, indicated by a slow increase in CO2 signal, a decrease in dissolved oxygen and addition of base. Indeed the cells further grew exponentially with concomitant production of CO2, and now consumed the galactose within approximately 50 hours. Based upon the CO2 production the specific growth rate was estimated to be 0.091 1/h (FIG. 4). The final biomass concentration was 18.9 g/l. The strain is referred to as PALCPR-evolved-III.
The evolved PALCPR-evolved-III strain described in the previous example was grown in the presence of nonyl-acetate, a similar solvent as octylacetate with one additional carbon atom. A 1 ml aliquot of a glycerol stock that was made from an exponentional growing PALCPR-evolved-III strain was used to inoculate a fermentor, containing a similar medium as described in the previous example, containing only 100 g/l galactose and 100 ml of nonyl-acetate from the beginning of the fermentation. The stirrer speed was instantly set at 800 rpm. Upon inoculation of the fermentor, consumption of galactose only commenced after approximately 70 hours, indicated by a slow increase in CO2 signal, a decrease in dissolved oxygen and addition of base. […]

[2] = partition coefficient between water and octanol; cited from earlier work
[3] = tested on: S. cerevisiae strain FS09229; assay: Growth of non-evolved strain FS09229 in the presence of extraction solvent (CO2 production); assay type: cell-based; conditions: 100 ml solvent from start, 800 rpm
Procedure: The non-evolved FS09229 strain described in previous examples was grown in the presence of nonyl-acetate. A 1 ml aliquot of a glycerol stock that was made from an exponentional growing FS09229 strain was used to inoculate a fermentor, containing a similar medium as described in the previous example, but now containing 100 g/l glucose and 100 ml of nonyl-acetate from the beginning of the fermentation. The stirrer speed was instantly set at 800 rpm. Upon inoculation of the fermentor, a long lag-phase of approximately 70 hrs set-in, during which an apparent adaptation to the solvent took place. Consumption of glucose only then commenced, indicated by a slow increase in CO2 signal, a decrease in dissolved oxygen and addition of base. Indeed the cells continued to grow exponentially with concomitant production of CO2, and consumed the glucose within less than 25 hours. […] The final biomass concentration was 15.5 g/l. The cultivation will be referred to as FS09229-solvent. As a control-experiment said strain was grown in the similar medium without the addition of nonyl-acetate. Upon inoculation of the fermentor, consumption of glucose commenced already after approximately 10 hours, indicated by an increase in CO2 signal, a decrease in dissolved oxygen and addition of base. […]

Question: For CCCCCCCCCOC(C)=O [nonyl-acetate], which “lag-phase until galactose consumption commenced” value [1] is on record?
Answer: The value was “approximately 70 hours”.

Question: What about the specific growth rate [1] of the same compound?
Answer: The specific growth rate was 0.098 h⁻¹.

Question: And the logP [2]?
Answer: Its logP is 4.2.

Question: And the lag-phase [3]?
Answer: Its lag-phase is “approximately 70 hrs”.

Question: What about the specific growth rate ([3]; 100 g/l glucose) of the same compound?
Answer: Its specific growth rate is 0.176 h⁻¹.
